Results published in paper PMC9945734 (BMC Medicine, 2023).
Where two headings read alike, the source gives them in different places.

Test system: PC-3-KQ cells
Test: 3D spheroid invasion assay and screening of FDA-approved drugs
Assay type: cell-based, human
Settings: compared to vehicle control; for activity at 0.01 µM / activity at 0.1 µM / activity at 1 µM / activity at 10 µM: Homo sapiens, 72 h, read-out: Invasion rates (%) of each drug’s multiple concentrations
Description: The invasion assay was performed as previously described. […] The plates were then centrifuged at 320 g for 4 min to cluster cells in the bottom of wells and incubated for 3 days. On the fourth day, 40 μL medium was removed from each well, 40 μL of the matrigel-medium mixture was added to each well, and cells were cultured for another 3 days. […] At the end of the incubation, images were taken using a phase contrast microscope (Eclipse Ti2, Nikon, Tokyo, Japan) with 10× object lenses, and the total area of cells and the core sphere area of cells (Fig. 1a) were measured using the Image J software. The invading area was calculated using the following formula: invasion area = total area of cells – core sphere area.
For drug screening, drugs were added to the matrigel-medium mixture when replacing the culture medium on day 4. For the initial round of screening, a final concentration of 10 μM was used for all drugs. Multiple drug concentrations were used for the second round of screening, including 0, 0.001, 0.01, 0.1, 1, and 10 μM. Duplicate wells were repeated for each concentration.

[1] = 0.01 μM (first column so headed), secondary screening of 87 hit compounds (Table S1)
[2] = 0.01 μM (first column so headed), third screening of 25 hit compounds (Table S2)
[3] = 0.01 μM (second column so headed), secondary screening of 87 hit compounds (Table S1)
[4] = 0.01 μM (second column so headed), third screening of 25 hit compounds (Table S2)
[5] = 0.1 μM, secondary screening of 87 hit compounds (Table S1)
[6] = 0.1 μM, third screening of 25 hit compounds (Table S2)
[7] = 1 μM, secondary screening of 87 hit compounds (Table S1)
[8] = 1 μM, third screening of 25 hit compounds (Table S2)
[9] = 10 μM, secondary screening of 87 hit compounds (Table S1)
[10] = 10 μM, third screening of 25 hit compounds (Table S2)

Structure (SMILES) | Invasion rates (%) of each drug’s multiple concentrations (μM) [1] | Invasion rates (%) of each drug’s multiple concentrations (μM) [3] | Invasion rates (%) of each drug’s multiple concentrations (μM) [5] | Invasion rates (%) of each drug’s multiple concentrations (μM) [7] | Invasion rates (%) of each drug’s multiple concentrations (μM) [9] | activity at 0.01 µM [1] | activity at 0.1 µM [5] | activity at 1 µM [7] | activity at 10 µM [9] | also measured
Cc1nc(Nc2ncc(C(=O)Nc3c(C)cccc3Cl)s2)cc(N2CCN(CCO)CC2)n1.Cl [Dasatinib (hydrochloride)] | 54.32% | 60.68% | 53.75% | 49.82% | 38.63% | – | – | – | – | Invasion rates (%) of each drug’s multiple concentrations (μM) [2]: 99.47%; Invasion rates (%) of each drug’s multiple concentrations (μM) [4]: 101.09%; Invasion rates (%) of each drug’s multiple concentrations (μM) [6]: 92.00%; Invasion rates (%) of each drug’s multiple concentrations (μM) [8]: 87.73%; Invasion rates (%) of each drug’s multiple concentrations (μM) [10]: 56.83%
Cc1nc(Nc2ncc(C(=O)Nc3c(C)cccc3Cl)s2)cc(N2CCN(CCO)CC2)n1 [Dasatinib] | – | – | – | – | – | 46.2% | 37.7% | 37.1% | 15.1% | activity at 0.01 µM [2]: 95.1%; activity at 0.01 µM [3]: 49.7%; activity at 0.01 µM [4]: 97.7%; activity at 0.1 µM [6]: 83.4%; activity at 1 µM [8]: 71.7%; activity at 10 µM [10]: 0.9%
COc1cccc2c1C(=O)c1c(O)c3c(c(O)c1C2=O)C[C@@](O)(C(C)=O)C[C@@H]3O[C@H]1C[C@H](N)[C@H](O)[C@H](C)O1.Cl [Daunorubicin (Hydrochloride)] | 95.45% | 98.71% | 93.45% | 64.89% | 2.25% | – | – | – | – | –
CNC[C@H](O)[C@@H](O)[C@H](O)[C@H](O)CO.Nc1nc(-n2cc(C(=O)O)c(=O)c3cc(F)c(N4CC(O)C4)c(Cl)c32)c(F)cc1F [Delafloxacin (meglumine)] | 85.63% | 84.75% | 73.78% | 2.08% | 1.54% | – | – | – | – | Invasion rates (%) of each drug’s multiple concentrations (μM) [2]: 93.02%; Invasion rates (%) of each drug’s multiple concentrations (μM) [4]: 86.37%; Invasion rates (%) of each drug’s multiple concentrations (μM) [6]: 82.73%; Invasion rates (%) of each drug’s multiple concentrations (μM) [8]: 1.96%; Invasion rates (%) of each drug’s multiple concentrations (μM) [10]: 0.81%
CN(C)[C@@H]1C(=O)C(C(N)=O)=C(O)[C@@]2(O)C(=O)C3=C(O)c4c(O)ccc(Cl)c4[C@@H](O)[C@H]3C[C@@H]12.Cl [Demeclocycline (hydrochloride)] | 92.92% | 97.24% | 81.08% | 41.75% | 4.21% | – | – | – | – | Invasion rates (%) of each drug’s multiple concentrations (μM) [2]: 93.85%; Invasion rates (%) of each drug’s multiple concentrations (μM) [4]: 95.74%; Invasion rates (%) of each drug’s multiple concentrations (μM) [6]: 89.49%; Invasion rates (%) of each drug’s multiple concentrations (μM) [8]: 2.65%; Invasion rates (%) of each drug’s multiple concentrations (μM) [10]: 0.30%
Cc1ncc([N+](=O)[O-])n1C[C@@H](CN1CCOCC1)OP(=O)(O)O [Dextrorotation nimorazole phosphate ester] | 97.64% | 99.79% | 97.40% | 85.31% | 35.28% | – | – | – | – | –
Cc1ncc([N+](=O)[O-])n1C [Dimetridazole] | – | – | – | – | – | 95.7% | 88.8% | 71% | 3.61% | activity at 0.01 µM [3]: 97.8%
CCCCCCCCCCCC[N+](C)(C)CCOc1ccccc1.[Br-] [Domiphen (bromide)] | 89.87% | 94.08% | 85.67% | 77.63% | 66.00% | – | – | – | – | –
COc1cccc2c1C(=O)c1c(O)c3c(c(O)c1C2=O)C[C@@](O)(C(=O)CO)C[C@@H]3O[C@H]1C[C@H](N)[C@H](O)[C@H](C)O1.Cl [Doxorubicin (hydrochloride)] | 93.34% | 92.49% | 89.01% | – | 1.92% | – | – | – | – | –
C[C@H]1c2cccc(O)c2C(O)=C2C(=O)[C@]3(O)C(O)=C(C(N)=O)C(=O)[C@@H](N(C)C)[C@@H]3[C@@H](O)[C@@H]21 [Doxycycline (hyclate)] | 91.64% | 100.52% | 74.92% | 3.13% | 1.59% | – | – | – | – | Invasion rates (%) of each drug’s multiple concentrations (μM) [2]: 101.94%; Invasion rates (%) of each drug’s multiple concentrations (μM) [4]: 98.24%; Invasion rates (%) of each drug’s multiple concentrations (μM) [6]: 93.64%; Invasion rates (%) of each drug’s multiple concentrations (μM) [8]: 5.76%; Invasion rates (%) of each drug’s multiple concentrations (μM) [10]: 1.58%
COc1cccc2c1C(=O)c1c(O)c3c(c(O)c1C2=O)C[C@@](O)(C(=O)CO)C[C@@H]3O[C@H]1C[C@H](N)[C@@H](O)[C@H](C)O1.Cl [Epirubicin (hydrochloride)] | 94.42% | 95.60% | 93.22% | 88.57% | 4.65% | – | – | – | – | –
CCc1c(Cl)c(O)c(Cl)c(O)c1C(=O)O[C@H]1[C@H](O)[C@H](OC)[C@H](OC/C2=C\C=C\C[C@H](O)/C(C)=C/[C@H](CC)[C@@H](O[C@@H]3OC(C)(C)[C@@H](OC(=O)C(C)C)[C@H](O)[C@@H]3O)/C(C)=C/C(C)=C/C[C@@H]([C@@H](C)O)OC2=O)O[C@@H]1C [Fidaxomicin] | – | – | – | – | – | 100% | 99.5% | 96% | 41.5% | activity at 0.01 µM [3]: 103%
CC(=O)O[C@H]1C[C@@]2(C)[C@@H](C[C@@H](O)[C@H]3[C@@]4(C)CC[C@@H](O)[C@@H](C)[C@@H]4CC[C@@]32C)/C1=C(\CCC=C(C)C)C(=O)[O-].[Na+] [Fusidic acid (sodium salt)] | 92.69% | 89.70% | 87.85% | 68.14% | 0.70% | – | – | – | – | –
COc1ccc2c3c1O[C@H]1C[C@@H](O)C=C[C@@]31CCN(C)C2 [Galanthamine] | – | – | – | – | – | 86.8% | 88.4% | 83.3% | 15.1% | –
CS(=O)(=O)O.C[C@H]1NCc2cc(-c3ccc4c(=O)c(C(=O)O)cn(C5CC5)c4c3OC(F)F)ccc21.O [Garenoxacin (Mesylate hydrate)] | 89.65% | 95.96% | 85.98% | 96.56% | 48.76% | – | – | – | – | –
COc1cc2ncnc(Nc3ccc(F)c(Cl)c3)c2cc1OCCCN1CCOCC1 [Gefitinib] | – | – | – | – | – | 86.8% | 77.8% | 60.2% | 27.4% | activity at 0.01 µM [3]: 85.3%
